Reference: patent publication US11220523B2, “Carbohydrate ligands that bind to IgM antibodies against myelin-associated glycoprotein” (UNIVERSITÄT BASEL, priority 2014, dated 2022)

Molecular target: anti-MAG IgM antibodies
Assay: Competitive binding assay (modified anti-MAG ELISA): compounds compete with immobilized MAG for anti-MAG IgM antibodies of patient sera
Parameters: species or system human
Method: FIG. 1. Schematic representation of a competitive binding assay • (a) Incubation of MAG-coated plates with anti-MAG IgM (patient sera) and polymer 25. (b) Wash step. (c) Incubation with anti-human IgM antibody coupled to horseradish peroxidase. (d) Wash step. (e) Addition of tetramethylbenzidin (TMB) substrate. (f) Addition of acidic stop solution and measurement of the optical density.
The synthesized carbohydrate monomers (1 and 2) and the polymer 25 were tested in an established ELISA assay (Bühlmann Laboratories, Schonenbuch, Switzerland) applied for the diagnosis of anti-MAG neuropathy and for therapy control in clinic. The assay is used to determine serum concentration of anti-MAG IgM autoantibodies. The assay was modified to a competitive binding assay. The synthesized compounds and serum samples containing anti-MAG IgM antibodies are given into 96 well plates, coated with purified MAG from human brain. Immobilized MAG and the synthesized compounds compete for binding to the anti-MAG IgM antibodies. After a washing step MAG-bound IgM antibodies are detected with a horseradish peroxidase labeled antibody, followed by a colorimetric reaction. Successful competition of the compounds with MAG leads to a decrease in measured OD450 nm (optical density), because they block the binding sites of IgM antibodies, preventing them from binding to MAG. The principle of the assay is depicted in FIG. 1. For the evaluation of the compounds, four sera from different patients ([…]) with reported high anti-MAG IgM antibody titers were chosen. IgM antibody concentrations were determined for each serum in preliminary experiments. Serum dilutions with measured OD450 nm values around 1.0 were chosen for the assay, to be able to compare the measured IC50 values (half maximal inhibitory concentration) which are antibody concentration dependent. Serum dilutions: DP 1:2′500, KH 1:3,000, SJ 1:7,500, MK 1:23,000.
IC50 values of compound 1 were determined for all sera. Those of compound 2 were determined for serum MK with the highest antibody affinity for 1 and for serum SJ with the lowest antibody affinity for 1. The assay was repeated four times. From the received binding curves for each serum, the three best fitted were chosen and normalized for IC50 calculation. For curve generation of compound 2 an artificially high concentration point at 500 mM with 0% antibody binding was added because even at the highest concentration of 2 (50 mM) the inhibition of antibody binding was not 100%. The IC50 values for compound 2 are therefore to be considered as approximated values, although they changed only marginally upon addition of the high concentration point. Under the same assay conditions the carbohydrate polymer was tested with the sera KH, MK and SJ. The measurements were repeated at least three times. The three best fitted curves for each serum were chosen for IC50 calculation.
Sera of four patients (three men and one […]) were investigated. They all were tested positive for a monoclonal IgM gammopathy and were diagnosed with anti-MAG neuropathy at the University Hospital of Basel (Basel, Switzerland). Serum anti-MAG antibody titers were determined by an ELISA assay (Bühlmann Laboratories, Schonenbuch, Switzerland). Sera from two patients with a monoclonal IgM gammopathy and negative anti-MAG activity served as control. Use of sera was approved by the ethics committee of the University Hospital of Basel.
An anti-MAG ELISA kit (Bühlmann Laboratories, Schonenbuch, Switzerland) was used for the biological evaluation of compounds 1, 2 and 25. The 96 well plates coated with purified MAG from human brain were washed four times with washing buffer (300 μl/well) before adding the carbohydrate ligands in seven different concentrations (0.05-50 mM for the monomers 1 and 2 and 0.05-5,000 nM for the polymer 25), 25 μl/well. The patient sera containing anti-MAG IgM antibodies were added in the appropriate dilutions, 25 μl/well. […]

Compound	IC50 (patient serum DP (dilution 1:2′500), MAG-coated plates) [µM]	IC50 (patient serum KH (dilution 1:3,000), MAG-coated plates) [µM]	IC50 (patient serum MK (dilution 1:23,000), MAG-coated plates) [µM]	IC50 (patient serum SJ (dilution 1:7,500), MAG-coated plates) [µM]	inhibition of antibody binding (highest concentration, 50 mM) [%]	weaker binding to the unsulfated disaccharide (versus sulfated disaccharide 1) (patient serum MK)	IC50 (patient serum MK, approximated value, artificial point at 500 mM with 0% antibody binding added for curve fit) [µM]	lower binding affinity to the unsulfated disaccharide (versus sulfated disaccharide 1) (patient serum SJ) [fold]	IC50 (patient serum SJ, approximated value, artificial point at 500 mM with 0% antibody binding added for curve fit) [µM]
COc1ccc(OC2OC(CO)C(O)C(OC3OC(C(=O)O)C(O)C(OS(=O)(=O)O)C3O)C2O)cc1 [Compound 1, 4-Methoxyphenyl (Disodium-3-O-Sulfo-β-D-Glucopyranuronate)-(1→3)-β-D-Galacto-Pyranoside]	536 ± 23.5	614 ± 20.1	124 ± 9.5	793 ± 24					
COc1ccc(OC2OC(CO)C(O)C(OC3OC(C(=O)O)C(O)C(O)C3O)C2O)cc1 [Compound 2, 4-Methoxyphenyl (Sodium β-D-Glucopyranuronate)-(1→3)-β-D-Galactopyranoside]					< 100	approximately 230 fold	29000 ± 500	12.6	10000 ± 1000
